Data published in patent US11161838B2, “Heterocyclic derivatives as PI3K inhibitors” (Incyte Corporation, priority 2018, dated 2021).
Structures can show the parent of a compound that is named as a salt.

Tests used:
[1] = molecular target: PI3Kγ (p110γ) (Homo sapiens (Human), UniProt P48736); test: PI3K-γ Scintillation Proximity Assay; assay type: biochemical; conditions: 20 μM PIP2, 2 μM ATP, 13 nM PI3Kγ, 120 min, room temperature
From the text: Example B. PI3K-γ Scintillation Proximity Assay
(§1) [γ-^33P]ATP (10 mCi/mL) and Wheat Germ Agglutinin (WGA) YSi SPA Scintillation Beads was purchased from Perkin Elmer (Waltham, Mass.). Lipid kinase substrate, D-myo-Phosphatidylinositol 4,5-bisphosphate (PtdIns(4,5)P2)D (+)-sn-1,2-di-O-octanoylglyceryl, 3-O-phospho linked (PIP2), CAS 204858-53-7, was purchased from Echelon Biosciences (Salt Lake City, Utah). PI3Kγ (p110γ) Recombinant Human Protein was purchased from Life technology (Grand Island, N.Y.). ATP, MgCl2, DTT, EDTA, MOPS and CHAPS were purchased from Sigma Aldrich (St. Louis, Mo.).
(§2) The kinase reaction was conducted in polystyrene 384-well Greiner Bio-one white plate from Thermo Fisher Scientific in a final volume of 25 μL. Inhibitors were first diluted serially in DMSO and added to the plate wells before the addition of other reaction components. The final concentration of DMSO in the assay was 2%. The PI3Kγ assay was carried out at room temperature in 20 mM MOPS, pH 6.7, 10 mM MgCl2, 5 mM DTT and CHAPS 0.03%. Reactions were initiated by the addition of ATP, the final reaction mixture consisted of 20 μM PIP2, 2 μM ATP, 0.5 μCi [γ-^33P] ATP, 13 nM PI3Kγ. Reactions were incubated for 120 min and terminated by the addition of 40 μL SPA beads suspended in quench buffer: 163 mM potassium phosphate pH 7.8, 20% glycerol, 25 mM EDTA. The final concentration of SPA beads is 1.0 mg/mL. After the plate sealing, plates were shaken overnight at room temperature and centrifuged at 1500 rpm for 10 min, the radioactivity of the product was determined by scintillation counting on Topcount (Perkin-Elmer). IC50 determination was performed by fitting the curve of percent of the solvent control activity versus the log of the inhibitor concentration using the GraphPad Prism 6.0 software.

[2] = molecular target: PI3Kδ (p110δ/p85α) (Homo sapiens (Human), UniProt O00329); test: PI3Kδ Scintillation Proximity Assay; assay type: biochemical; conditions: 20 μM PIP2, 2 μM ATP, 3.4 nM PI3Kδ, 120 min, room temperature
PI3Kδ (p110δ/p85α), sequence (O00329 whole entry): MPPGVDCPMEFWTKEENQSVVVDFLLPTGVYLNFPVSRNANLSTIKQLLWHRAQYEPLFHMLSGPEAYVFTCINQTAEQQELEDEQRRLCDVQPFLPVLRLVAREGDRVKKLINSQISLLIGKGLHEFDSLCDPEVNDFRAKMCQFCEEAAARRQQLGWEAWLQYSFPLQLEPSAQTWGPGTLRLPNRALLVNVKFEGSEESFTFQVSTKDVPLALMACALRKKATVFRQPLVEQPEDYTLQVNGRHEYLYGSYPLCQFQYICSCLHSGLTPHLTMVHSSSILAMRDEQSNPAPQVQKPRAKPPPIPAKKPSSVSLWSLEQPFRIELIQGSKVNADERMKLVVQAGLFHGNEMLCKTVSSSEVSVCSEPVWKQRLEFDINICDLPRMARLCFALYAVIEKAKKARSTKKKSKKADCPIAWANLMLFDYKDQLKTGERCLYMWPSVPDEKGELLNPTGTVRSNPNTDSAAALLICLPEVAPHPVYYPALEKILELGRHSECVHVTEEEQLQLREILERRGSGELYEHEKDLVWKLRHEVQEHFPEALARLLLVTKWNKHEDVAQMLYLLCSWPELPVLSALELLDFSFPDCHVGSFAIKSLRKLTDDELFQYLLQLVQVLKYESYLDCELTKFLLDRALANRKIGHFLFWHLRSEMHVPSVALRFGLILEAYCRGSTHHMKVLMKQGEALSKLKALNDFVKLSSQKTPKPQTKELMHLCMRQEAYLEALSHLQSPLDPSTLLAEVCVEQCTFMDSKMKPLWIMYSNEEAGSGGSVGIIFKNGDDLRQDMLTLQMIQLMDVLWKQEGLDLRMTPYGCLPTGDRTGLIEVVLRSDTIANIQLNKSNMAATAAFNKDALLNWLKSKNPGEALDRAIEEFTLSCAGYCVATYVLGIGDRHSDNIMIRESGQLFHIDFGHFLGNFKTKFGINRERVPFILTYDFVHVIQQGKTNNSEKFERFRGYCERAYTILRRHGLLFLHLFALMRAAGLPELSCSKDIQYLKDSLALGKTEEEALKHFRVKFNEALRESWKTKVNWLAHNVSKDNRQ
PI3Kδ (p110δ/p85α), sequence (P27986 whole entry partner): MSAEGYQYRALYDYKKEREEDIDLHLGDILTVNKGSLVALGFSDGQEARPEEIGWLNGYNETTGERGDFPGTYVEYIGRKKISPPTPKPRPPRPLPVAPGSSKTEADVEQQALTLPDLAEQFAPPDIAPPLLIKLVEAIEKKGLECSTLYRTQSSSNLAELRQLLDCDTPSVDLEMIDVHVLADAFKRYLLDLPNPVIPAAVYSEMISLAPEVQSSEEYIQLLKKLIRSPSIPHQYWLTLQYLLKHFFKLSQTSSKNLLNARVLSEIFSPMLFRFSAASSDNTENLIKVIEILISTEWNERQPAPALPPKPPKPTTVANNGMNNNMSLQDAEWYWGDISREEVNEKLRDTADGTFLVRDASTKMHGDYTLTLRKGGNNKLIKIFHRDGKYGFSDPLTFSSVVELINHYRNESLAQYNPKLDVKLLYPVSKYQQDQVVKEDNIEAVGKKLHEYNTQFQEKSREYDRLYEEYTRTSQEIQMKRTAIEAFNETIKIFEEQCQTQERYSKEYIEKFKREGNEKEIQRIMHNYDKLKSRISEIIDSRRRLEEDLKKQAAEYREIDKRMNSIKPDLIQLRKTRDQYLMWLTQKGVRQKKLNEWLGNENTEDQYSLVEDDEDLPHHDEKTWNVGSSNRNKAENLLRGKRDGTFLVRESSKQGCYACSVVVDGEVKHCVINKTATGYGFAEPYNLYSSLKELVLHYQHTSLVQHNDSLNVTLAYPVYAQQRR
From the text: Example C. PI3Kδ Scintillation Proximity Assay
as §1, with “Materials: [γ-^33P]ATP” for “[γ-^33P]ATP”, “PI3Kδ (p110δ/p85α)” for “PI3Kγ (p110γ)”, “Eurofins (St Charles, Mo.).” for “Life technology (Grand Island, N.Y.).”
as §2, with “PI3K6” for “PI3Kγ”, “3.4” for “13”, “PI3K6.” for “PI3Kγ.”, “(PerkinElmer).” for “(Perkin-Elmer).”

[3] = test system: Phosphorylated Ribosomal Protein S6 (RPS6) in THP-1 cells; test: THP-1 RPS6 ELISA Assay; assay type: cell-based; conditions: Homo sapiens; serum starved THP-1 cells, 2 hours with compound, then 10 nM MCP-1 for 15 minutes; Phospho-RPS6 ELISA; read-out: PI3Kγ_THP1_RPS6_ELISA IC50
Procedure: Example A. THP-1 RPS6 ELISA Assay
To measure the Phosphorylated Ribosomal Protein S6 (RPS6) in cell lysates, THP-1 cells (Human Acute Monocytic Leukemia) are purchased from ATCC (Manassas, Va.) and maintained in RPMI with 10% FBS (Gibco/Life Technologies, Carlsbad, Calif.). For the assay, THP-1 cells are serum starved overnight in RPMI, then plated in RPMI (2×10^5 cells/well in 90 μL) into 96-well flat-bottom tissue culture treated plates (Corning, Corning, N.Y.), in the presence or absence of a concentration range of test compounds. Covered plates are incubated for 2 hours at 37° C., 5% CO2 then treated with or without 10 nM MCP-1 (MYBioSource, San Diego, Calif.) for 15 minutes at 37° C., 5% CO2. Plates are centrifuged at 1600 RPM and supernatants are removed. Cells are lysed in Lysis Buffer (Cell Signaling, Danvers, Mass.) with Protease Inhibitor (Calbiochem/EMD, Germany), PMSF (Sigma, St Louis Mo.), HALTS (Thermo Fisher, Rockford, Ill.) for 30 min on wet ice. Cell lysates are frozen at −80 OC before testing. The lysates are tested in the Human/Mouse/Rat Phospho-RPS6 ELISA (R&D Systems, Inc. Minn, Minn.). The plate is measured using a microplate reader (SpectraMax M5—Molecular Devices, LLC Sunnyvale, Calif.) set to 450 nm with a wavelength correction of 540. IC50 determination is performed by fitting the curve of inhibitor percent inhibition versus the log of the inhibitor concentration using the GraphPad Prism 5.0 software.

PI3Kγ (p110γ), sequence (P48736 whole entry): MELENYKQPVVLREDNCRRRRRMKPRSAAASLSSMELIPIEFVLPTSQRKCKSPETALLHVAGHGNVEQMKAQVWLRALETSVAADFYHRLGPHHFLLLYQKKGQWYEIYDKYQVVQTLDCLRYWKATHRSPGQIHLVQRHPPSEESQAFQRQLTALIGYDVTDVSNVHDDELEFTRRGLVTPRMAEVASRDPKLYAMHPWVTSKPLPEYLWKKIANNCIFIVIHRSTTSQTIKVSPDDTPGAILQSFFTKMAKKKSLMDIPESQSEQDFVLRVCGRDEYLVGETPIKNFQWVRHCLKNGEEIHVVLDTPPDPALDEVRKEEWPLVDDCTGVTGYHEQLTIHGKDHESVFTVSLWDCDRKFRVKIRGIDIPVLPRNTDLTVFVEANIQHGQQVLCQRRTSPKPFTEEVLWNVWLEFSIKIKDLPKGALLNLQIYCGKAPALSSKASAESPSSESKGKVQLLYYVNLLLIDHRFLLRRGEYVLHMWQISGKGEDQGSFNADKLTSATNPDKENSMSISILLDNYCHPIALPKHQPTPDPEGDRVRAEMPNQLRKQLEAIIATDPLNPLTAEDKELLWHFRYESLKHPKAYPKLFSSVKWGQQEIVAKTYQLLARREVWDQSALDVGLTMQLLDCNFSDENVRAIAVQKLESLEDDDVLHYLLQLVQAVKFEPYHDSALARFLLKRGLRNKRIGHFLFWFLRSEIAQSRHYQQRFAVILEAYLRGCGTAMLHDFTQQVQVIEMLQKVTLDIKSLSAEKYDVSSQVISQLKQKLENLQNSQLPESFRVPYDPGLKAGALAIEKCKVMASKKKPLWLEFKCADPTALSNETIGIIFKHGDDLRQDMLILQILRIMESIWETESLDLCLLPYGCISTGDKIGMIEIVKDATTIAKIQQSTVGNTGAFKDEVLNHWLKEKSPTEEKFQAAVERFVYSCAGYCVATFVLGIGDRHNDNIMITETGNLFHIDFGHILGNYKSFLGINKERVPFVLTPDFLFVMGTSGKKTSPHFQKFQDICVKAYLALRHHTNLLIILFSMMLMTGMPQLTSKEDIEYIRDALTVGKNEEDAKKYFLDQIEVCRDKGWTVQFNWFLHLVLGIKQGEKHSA

SMILES | IC50 [1] [nM] | IC50 [2] [nM] | IC50 [3] [nM]
C[C@@H](C1CC1)N1Cc2cc(-c3cnc(N)c(C(=O)NC4CCOCC4)n3)ccc2C1=O [Example 1, (S)-3-Amino-6-(2-(1-cyclopropylethyl)-1-oxoisoindolin-5-yl)-N-(tetrahydro-2H-pyran-4-yl)pyrazine-2-carboxamide trifluoroacetate salt] | ≤ 100 | 500 to 2000 | ≥ 1000
CC(C)NC(=O)c1nc(-c2ccc3c(c2)CN([C@@H](C)C2CC2)C3=O)cnc1N [Example 2, (S)-3-Amino-6-(2-(1-cyclopropylethyl)-1-oxoisoindolin-5-yl)-N-isopropylpyrazine-2-carboxamide trifluoroacetate salt] | ≤ 100 | 500 to 2000 | ≥ 1000
C[C@@H](C1CC1)N1Cc2cc(-c3cnc(N)c(C(=O)NC4CCOCC4)n3)cc(S(C)(=O)=O)c2C1=O [Example 3, (S)-3-Amino-6-(2-(1-cyclopropylethyl)-7-(methylsulfonyl)-1-oxoisoindolin-5-yl)-N-(tetrahydro-2H-pyran-4-yl)pyrazine-2-carboxamide trifluoroacetate salt] | ≤ 100 | 100 to 500 | 100 to 500
CC(C)NC(=O)c1nc(-c2cc3c(c(S(C)(=O)=O)c2)C(=O)N([C@@H](C)C2CC2)C3)cnc1N [Example 4, (S)-3-Amino-6-(2-(1-cyclopropylethyl)-7-(methylsulfonyl)-1-oxoisoindolin-5-yl)-N-isopropylpyrazine-2-carboxamide trifluoroacetate salt] | ≤ 100 | 500 to 2000 | ≥ 1000
Cc1cc(-c2cnc(N)cn2)cc2cn(C(C)C3CC3)nc12 (centres unmarked) [Example 5, 5-(2-(1-Cyclopropylethyl)-7-methyl-2H-indazol-5-yl)pyrazin-2-amine, trifluoroacetate] | 100 to 500 | ≥ 2000 | –
CC(C1CC1)n1nc2ccc(-c3cnc(N)cn3)cc2n1 (centres unmarked) [Example 6, 5-(2-(1-Cyclopropylethyl)-2H-benzo[d][1,2,3]triazol-5-yl)pyrazin-2-amine, trifluoroacetate] | 500 to 2000 | ≥ 2000 | –
C[C@@H](C1CC1)N1Cc2cc(-c3cnc(N)c(-c4ccnn4C)n3)cc(S(C)(=O)=O)c2C1=O [Example 7, (S)-5-(5-Amino-6-(1-methyl-1H-pyrazol-5-yl)pyrazin-2-yl)-2-(1-cyclopropylethyl)-7-(methylsulfonyl)isoindolin-1-one, trifluoroacetate salt] | ≤ 100 | 500 to 2000 | ≥ 1000
C[C@@H](C1CC1)N1Cc2cc(-c3cnc(N)c(-c4cnn(C)c4)n3)cc(S(C)(=O)=O)c2C1=O [Example 8, (S)-5-(5-Amino-6-(1-methyl-1H-pyrazol-4-yl)pyrazin-2-yl)-2-(1-cyclopropylethyl)-7-(methylsulfonyl)isoindolin-1-one, trifluoroacetate salt] | ≤ 100 | 500 to 2000 | 500 to 1000
Cc1ncc(-c2nc(-c3cc4c(c(S(C)(=O)=O)c3)C(=O)N([C@@H](C)C3CC3)C4)cnc2N)s1 [Example 9, (S)-5-(5-Amino-6-(2-methylthiazol-5-yl)pyrazin-2-yl)-2-(1-cyclopropylethyl)-7-(methylsulfonyl)isoindolin-1-one, trifluoroacetate salt] | ≤ 100 | 100 to 500 | 500 to 1000
Cc1n[nH]cc1-c1nc(-c2cc3c(c(S(C)(=O)=O)c2)C(=O)N([C@@H](C)C2CC2)C3)cnc1N [Example 10, (S)-5-(5-Amino-6-(3-methyl-1H-pyrazol-4-yl)pyrazin-2-yl)-2-(1-cyclopropylethyl)-7-(methylsulfonyl)isoindolin-1-one, trifluoroacetate salt] | ≤ 100 | 500 to 2000 | ≥ 1000
C[C@@H](C1CC1)N1Cc2cc(-c3cnc(N)c(-c4cn[nH]c4)n3)cc(S(C)(=O)=O)c2C1=O [Example 11, (S)-5-(5-Amino-6-(1H-pyrazol-4-yl)pyrazin-2-yl)-2-(1-cyclopropylethyl)-7-(methylsulfonyl)isoindolin-1-one, trifluoroacetate salt] | ≤ 100 | 500 to 2000 | –
C[C@@H](C1CC1)N1Cc2cc(-c3cnc(N)c(-n4cncn4)n3)cc(S(C)(=O)=O)c2C1=O [Example 12, (S)-5-(5-Amino-6-(1H-1,2,4-triazol-1-yl)pyrazin-2-yl)-2-(1-cyclopropylethyl)-7-(methylsulfonyl)isoindolin-1-one, trifluoroacetate salt] | ≤ 100 | 500 to 2000 | ≥ 1000
C[C@@H](C1CC1)N1Cc2cc(-c3cnc(N)c(C4CN(C(=O)C5(C(F)(F)F)CC5)C4)n3)ccc2C1=O [Example 13, (S)-5-(5-Amino-6-(1-(1-(trifluoromethyl)cyclopropane-1-carbonyl)azetidin-3-yl)pyrazin-2-yl)-2-(1-cyclopropylethyl)isoindolin-1-one, 0.7× trifluoroacetate salt] | ≤ 100 | ≥ 2000 | –
